Broadly, the fraction unbound is free concentration divided by total concentration. Higher therefore signals much free substance. The term IC50 denotes the point on the concentration scale where inhibition reaches its midpoint.

A short description of data set [1]: Plasma concentration in rat at 10 mg/kg, po measured after 2 hrs by LC-MS/MS. The class given is ADME, organism-based.
The target in data set [2] is Voltage-gated inwardly rectifying potassium channel KCNH2 (Homo sapiens, UniProt Q12809). Nature of the data set: Inhibition of human ERG expressed in HEK293 cells at 3 uM by patch clamp assay. Type of data set: cell-based. The following applies: hek293, 3 µM. (The patch-clamp technique gives a direct electrical read-out from membranes.)
Sequence of Voltage-gated inwardly rectifying potassium channel KCNH2 (Q12809 whole entry): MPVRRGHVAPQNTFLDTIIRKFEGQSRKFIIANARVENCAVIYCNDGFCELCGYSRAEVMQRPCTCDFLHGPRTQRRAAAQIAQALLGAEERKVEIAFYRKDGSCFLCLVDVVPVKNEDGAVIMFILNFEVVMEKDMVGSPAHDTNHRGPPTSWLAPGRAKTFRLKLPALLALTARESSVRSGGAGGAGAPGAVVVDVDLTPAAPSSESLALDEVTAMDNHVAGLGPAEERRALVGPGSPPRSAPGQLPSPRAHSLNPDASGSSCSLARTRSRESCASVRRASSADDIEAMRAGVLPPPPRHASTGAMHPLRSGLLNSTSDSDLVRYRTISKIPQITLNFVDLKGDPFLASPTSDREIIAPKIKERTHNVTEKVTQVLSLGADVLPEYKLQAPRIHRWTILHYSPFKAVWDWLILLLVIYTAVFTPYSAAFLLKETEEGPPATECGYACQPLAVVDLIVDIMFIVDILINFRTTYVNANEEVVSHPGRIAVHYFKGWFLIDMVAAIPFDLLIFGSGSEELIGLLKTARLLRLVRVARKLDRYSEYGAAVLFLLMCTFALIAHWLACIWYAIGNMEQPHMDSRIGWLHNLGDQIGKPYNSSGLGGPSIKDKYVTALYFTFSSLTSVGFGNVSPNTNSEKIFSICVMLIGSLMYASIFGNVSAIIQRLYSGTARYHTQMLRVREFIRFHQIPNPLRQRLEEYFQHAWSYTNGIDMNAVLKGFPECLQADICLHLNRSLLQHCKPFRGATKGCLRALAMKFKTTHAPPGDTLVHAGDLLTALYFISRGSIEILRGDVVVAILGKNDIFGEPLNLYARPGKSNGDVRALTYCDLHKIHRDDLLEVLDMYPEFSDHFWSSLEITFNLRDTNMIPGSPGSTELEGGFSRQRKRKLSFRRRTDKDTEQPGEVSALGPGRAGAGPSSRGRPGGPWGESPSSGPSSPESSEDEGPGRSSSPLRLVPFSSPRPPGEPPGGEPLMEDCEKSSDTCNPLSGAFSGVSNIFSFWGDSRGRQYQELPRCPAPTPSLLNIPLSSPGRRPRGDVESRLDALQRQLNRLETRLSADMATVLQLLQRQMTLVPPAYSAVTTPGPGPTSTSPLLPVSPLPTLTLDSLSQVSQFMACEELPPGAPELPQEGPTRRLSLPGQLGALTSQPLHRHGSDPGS
The nature of data set [3]: Metabolic stability in rat liver microsomes assessed as parent compound remaining at 1 uM measured at 15 mins by LC-MS/MS analysis. Type of data set: ADME, Microsome. The following applies: read-out: Stabilty. (In general: Liver microsomes are vesicles of endoplasmic reticulum, rich in cytochrome P450 enzymes.)
Data set [4] can be described thus: Fraction unbound in rat plasma at 10 mg/kg, po measured by LC-MS/MS. Type of data set: ADME, organism-based.
Data set [5] concerns the target T1, Muscarinic acetylcholine receptor M1 (Homo sapiens, UniProt P11229).
T1 sequence (P11229 whole entry): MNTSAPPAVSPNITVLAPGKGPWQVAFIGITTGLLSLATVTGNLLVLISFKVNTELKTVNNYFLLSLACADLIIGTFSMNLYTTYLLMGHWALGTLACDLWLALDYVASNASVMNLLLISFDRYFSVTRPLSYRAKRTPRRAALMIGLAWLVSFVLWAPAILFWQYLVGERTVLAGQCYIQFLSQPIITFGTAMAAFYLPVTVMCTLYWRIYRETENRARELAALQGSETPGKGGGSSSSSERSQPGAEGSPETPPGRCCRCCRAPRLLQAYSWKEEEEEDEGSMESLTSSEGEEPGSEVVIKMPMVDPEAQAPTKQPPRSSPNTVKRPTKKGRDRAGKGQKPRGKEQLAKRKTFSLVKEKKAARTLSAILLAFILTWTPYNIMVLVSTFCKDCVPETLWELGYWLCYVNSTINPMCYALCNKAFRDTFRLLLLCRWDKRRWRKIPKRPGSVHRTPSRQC
Nature of the data set: Antagonist activity at human recombinant muscarinic receptor M1 expressed in CHO-K1 cells assessed as EC80 acetylcholine-induced calcium flux incubated for 30 mins. The class given is functional, cell-based. The following applies: read-out: IC50.

A short description of data set [6]: Fraction unbound rat plasma at 10 mg/kg, po measured after 2 hrs by LC-MS/MS. Type of data set: ADME, organism-based. To be noted: in vivo.
Data set [7] is described as follows: Brain to plasma permeability coefficient, Kp of the compound in rat at 10 mg/kg, po measured after 2 hrs by LC-MS/MS. The class given is ADME, organism-based. To be noted: read-out: K(p,uu,brain).
The nature of data set [8]: In vivo receptor occupancy at muscarinic M1 receptor in myelin oligodendrocyte glycoprotein (MOG)-induced experimental autoimmune encephalitis C57BL/6 mouse model assessed as decrease in occupancy at 30 mg/kg, po measured after 24 hrs. The class given is functional.

`N#Cc1ccc(N2CCN(C(=O)CCS(=O)(=O)c3cccc4ncsc34)CC2)nc1` yielded a concentration at 2 h in data set [1] of 89 nM. Further, the inhibition (INH) in data set [2] is 69%. For the same compound, in data set [3], the remaining at 0.25 h, 1 µM is 59%. This compound gave a fraction unbound in data set [4] of 0.15. Moreover, the IC50 in data set [5] stood at 5.8 nM. Further, in data set [6], the “Cp(f)” value was determined as 13 nM. Further, in data set [7], the Kp uu at 2 h was determined as 0.17. The Occ in data set [8] was found to be 50%.
